Source: PubChem BioAssay AID328 (DTP/NCI, 2004)
Where “and” joins values, the source holds several entries; their conditions need not be identical. Equal entries are not always repeated. Toxic doses and inconclusive results are not listed.

System: BDF1 mice, P388 leukemia ip, median survival T/C
Assay: NCI In Vivo Anticancer Drug Screen. Data for tumor model P388 Leukemia (intraperitoneal) in B6D2F1 (BDF1) mice
Details: endpoint: median survival time, higher = longer survival
In short: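 Transplantable tumour in mice; compound vs vehicle dosing; survival scored; ratio of treated to control reported.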

[1] = dose: 100.0 mg/kg/injection, schedule: Q01DX009 (ip), vehicle: saline with Tween-80
[2] = dose: 200.0 mg/kg/injection, schedule: Q01DX009 (ip), vehicle: saline with Tween-80
[3] = dose: 400.0 mg/kg/injection, schedule: Q01DX009 (ip), vehicle: saline with Tween-80
[4] = dose: 25.0 mg/kg/injection, schedule: Q01DX009 (ip), vehicle: saline
[5] = dose: 50.0 mg/kg/injection, schedule: Q01DX009 (ip), vehicle: saline
[6] = dose: 100.0 mg/kg/injection, schedule: Q01DX009 (ip), vehicle: saline
[7] = dose: 100.0 mg/kg/injection, schedule: Q04DX003 (ip), vehicle: saline
[8] = dose: 200.0 mg/kg/injection, schedule: Q01DX009 (ip), vehicle: saline
[9] = dose: 200.0 mg/kg/injection, schedule: Q04DX003 (ip), vehicle: saline
[10] = dose: 400.0 mg/kg/injection, schedule: Q04DX003 (ip), vehicle: saline
[11] = dose: 50.0 mg/kg/injection, schedule: Q01DX009 (ip), vehicle: saline with Tween-80
[12] = dose: 100.0 mg/kg/injection, schedule: Q04DX003 (ip), vehicle: saline with Tween-80
[13] = dose: 200.0 mg/kg/injection, schedule: Q04DX003 (ip), vehicle: saline with Tween-80
[14] = dose: 400.0 mg/kg/injection, schedule: Q04DX003 (ip), vehicle: saline with Tween-80
[15] = dose: 100.0 mg/kg/injection, schedule: Q04DX003 (ip), vehicle: Klucel (hydroxypropylcellulose) (HPC)
[16] = dose: 200.0 mg/kg/injection, schedule: Q04DX003 (ip), vehicle: Klucel (hydroxypropylcellulose) (HPC)
[17] = dose: 50.0 mg/kg/injection, schedule: Q04DX003 (ip), vehicle: water
[18] = dose: 100.0 mg/kg/injection, schedule: Q04DX003 (ip), vehicle: water
[19] = dose: 200.0 mg/kg/injection, schedule: Q04DX003 (ip), vehicle: water
[20] = dose: 50.0 mg/kg/injection, schedule: Q04DX003 (ip), vehicle: saline
[21] = dose: 400.0 mg/kg/injection, schedule: Q01DX009 (ip), vehicle: saline

SMILES: CCCc1cc(CCC)nc(NNc2nc(CCC)cc(CCC)n2)n1
- T/C [1]: 86 % of control
- T/C [2]: 100 % of control
- T/C [3]: 100 % of control

SMILES: CCOC(=O)/C=C/c1c[nH]c(=O)[nH]c1=O
- T/C [4]: 101 % of control
- T/C [5]: 101 % of control
- T/C [6]: 101 % of control
- T/C [7]: 114 % of control
- T/C [8]: 104 % of control
- T/C [9]: 96 % of control
- T/C [10]: 96 % of control

SMILES: Cn1nnn2c(-c3ccccc3)nnc12
- T/C (dose: 25.0 mg/kg/injection, schedule: Q01DX009 (ip), vehicle: saline with Tween-80): 115 % of control
- T/C [11]: 110 % of control
- T/C [1]: 95 % of control

SMILES: CCOC(=O)C(OCc1ccccc1)(C(=O)Cl)C(C)C (stereo not drawn)
- T/C [11]: 118 % of control

SMILES: O=C(Cn1ccc(O)cc1=O)c1ccco1
- T/C [1]: 100 % of control
- T/C [12]: 100 % of control
- T/C [2]: 95 % of control
- T/C [13]: 109 % of control
- T/C [3]: 104 % of control
- T/C [14]: 104 % of control

SMILES: Cc1nn(CCO)c(C)c1N=[N+]([O-])c1c(C)nn(CCO)c1C
- T/C (dose: 15.0 mg/kg/injection, schedule: Q01DX009 (ip), vehicle: saline with Tween-80): 114 % of control

SMILES: O=S(=O)(Nc1ccccc1Cl)c1ccccc1
- T/C (dose: 100.0 mg/kg/injection, schedule: Q04DX003 (ip), vehicle: gum acacia): 111 % of control
- T/C (dose: 200.0 mg/kg/injection, schedule: Q04DX003 (ip), vehicle: gum acacia): 96 % of control
- T/C (dose: 400.0 mg/kg/injection, schedule: Q04DX003 (ip), vehicle: gum acacia): 111 % of control

SMILES: CCCCC(CC)COC(OCC(CC)CCCC)C(OCC(CC)CCCC)OCC(CC)CCCC (stereo not drawn)
- T/C [1]: 100 % of control
- T/C [2]: 100 % of control
- T/C [3]: 90 % of control

SMILES: CC(=O)C(C(c1ccccc1)C1CCCc2ccccc21)N1CCOCC1 (stereo not drawn)
- T/C (dose: 100.0 mg/kg/injection, schedule: Q01DX009 (ip), vehicle: Klucel (hydroxypropylcellulose) (HPC)): 100 % of control
- T/C [15]: 105 % of control
- T/C (dose: 200.0 mg/kg/injection, schedule: Q01DX009 (ip), vehicle: Klucel (hydroxypropylcellulose) (HPC)): 109 % of control
- T/C [16]: 100 % of control
- T/C (dose: 400.0 mg/kg/injection, schedule: Q01DX009 (ip), vehicle: Klucel (hydroxypropylcellulose) (HPC)): 104 % of control
- T/C (dose: 400.0 mg/kg/injection, schedule: Q04DX003 (ip), vehicle: Klucel (hydroxypropylcellulose) (HPC)): 100 % of control

SMILES: CCCN(CCC)c1ccc(C=O)cc1
- T/C (dose: 50.0 mg/kg/injection, schedule: Q04DX003 (ip), vehicle: Klucel (hydroxypropylcellulose) (HPC)): 100 % of control
- T/C [15]: 105 % of control
- T/C [16]: 94 % of control

SMILES: Nc1nc(N)c2cc(S(=O)(=O)c3cccc(C(F)(F)F)c3)ccc2n1
- T/C [11]: 95 % of control
- T/C [1]: 111 % of control
- T/C [2]: 120 % of control

SMILES: CC(Oc1ccc2ccccc2c1I)C(=O)O (stereo not drawn)
- T/C (dose: 50.0 mg/kg/injection, schedule: Q01DX005 (ip), vehicle: saline with Tween-80): 91 % of control
- T/C (dose: 100.0 mg/kg/injection, schedule: Q01DX005 (ip), vehicle: saline with Tween-80): 113 % of control
- T/C (dose: 200.0 mg/kg/injection, schedule: Q01DX005 (ip), vehicle: saline with Tween-80): 106 % of control

SMILES: O=C(CCCc1ccc(N(CCCl)CCCl)cc1)Nc1ncccn1
- T/C (dose: 2.0 mg/kg/injection, schedule: Q01DX009 (ip), vehicle: Klucel (hydroxypropylcellulose) (HPC)): 88 % of control
- T/C (dose: 3.0 mg/kg/injection, schedule: Q01DX009 (ip), vehicle: Klucel (hydroxypropylcellulose) (HPC)): 115 % of control
- T/C (dose: 6.0 mg/kg/injection, schedule: Q01DX009 (ip), vehicle: Klucel (hydroxypropylcellulose) (HPC)): 152 % of control
- T/C (dose: 8.0 mg/kg/injection, schedule: Q01DX009 (ip), vehicle: Klucel (hydroxypropylcellulose) (HPC)): 188 % of control
- T/C (dose: 18.0 mg/kg/injection, schedule: Q01DX009 (ip), vehicle: Klucel (hydroxypropylcellulose) (HPC)): 112 % of control
- T/C (dose: 25.0 mg/kg/injection, schedule: Q01DX009 (ip), vehicle: Klucel (hydroxypropylcellulose) (HPC)): 92 % of control

SMILES: CCOC(=O)NC12c3ccccc3C(c3ccccc31)C(C(=O)O)C2C(=O)O (stereo not drawn)
- T/C [12]: 118 % of control
- T/C [13]: 118 % of control
- T/C [14]: 118 % of control

SMILES: C=C1C(=O)OC2/C=C(\C)CC(O)/C=C(/C)CC(OC(=O)C3(C)OC3C)C12 (stereo not drawn)
- T/C (dose: 100.0 mg/kg/injection, schedule: Q04DX002 (ip), vehicle: Klucel (hydroxypropylcellulose) (HPC)): 111 % of control
- T/C (dose: 200.0 mg/kg/injection, schedule: Q04DX002 (ip), vehicle: Klucel (hydroxypropylcellulose) (HPC)): 113 % of control

SMILES: C/C(=C\C(=O)O)CC(=O)O
- T/C (dose: 25.0 mg/kg/injection, schedule: Q01DX009 (ip), vehicle: water): 109 % of control
- T/C (dose: 50.0 mg/kg/injection, schedule: Q01DX009 (ip), vehicle: water): 95 % of control
- T/C [17]: 92 % of control
- T/C (dose: 100.0 mg/kg/injection, schedule: Q01DX009 (ip), vehicle: water): 99 % of control
- T/C [18]: 99 % of control and 108 % of control
- T/C (dose: 200.0 mg/kg/injection, schedule: Q01DX009 (ip), vehicle: water): 101 % of control
- T/C [19]: 104 % of control and 110 % of control

SMILES: CC(=O)Nc1cc(C(=O)O)cc(C(F)(F)F)c1
- T/C [12]: 115 % of control
- T/C [13]: 105 % of control
- T/C [14]: 95 % of control

SMILES: CCOC(=O)CCCC1(C)C(C#N)C(=O)NC(=O)C1C#N (stereo not drawn)
- T/C [7]: 104 % of control
- T/C [9]: 100 % of control
- T/C [10]: 118 % of control

SMILES: CNC(=O)c1n[nH]c(C)c1[N+](=O)[O-]
- T/C (dose: 25.0 mg/kg/injection, schedule: Q04DX003 (ip), vehicle: water): 101 % of control
- T/C [17]: 106 % of control
- T/C [18]: 114 % of control
- T/C [19]: 97 % of control
- T/C (dose: 400.0 mg/kg/injection, schedule: Q04DX003 (ip), vehicle: water): 87 % of control

SMILES: CC(=O)[C@@]1(O)CC[C@H]2[C@@H]3C[C@H](C)C4=CC(=O)C=C[C@]4(C)[C@@]3(F)[C@@H](O)C[C@@]21C
- T/C (dose: 5.0 mg/kg/injection, schedule: Q01DX010 (sc), vehicle: steriod suspending solution): 109 % of control
- T/C (dose: 10.0 mg/kg/injection, schedule: Q01DX010 (sc), vehicle: steriod suspending solution): 109 % of control
- T/C (dose: 20.0 mg/kg/injection, schedule: Q01DX010 (sc), vehicle: steriod suspending solution): 118 % of control
- T/C (dose: 80.0 mg/kg/injection, schedule: Q01DX010 (sc), vehicle: steriod suspending solution): 118 % of control
- T/C (dose: 320.0 mg/kg/injection, schedule: Q01DX010 (sc), vehicle: steriod suspending solution): 95 % of control and 112 % of control
- T/C (dose: 640.0 mg/kg/injection, schedule: Q01DX010 (sc), vehicle: steriod suspending solution): 112 % of control

SMILES: NC(Cc1cc(Br)c(O)c(Br)c1)C(=O)O (stereo not drawn)
- T/C [4]: 108 % of control
- T/C [5]: 92 % of control
- T/C [20]: 120 % of control
- T/C [6]: 96 % of control
- T/C [7]: 105 % of control
- T/C [8]: 120 % of control
- T/C [9]: 115 % of control
- T/C [21]: 113 % of control

SMILES: Cc1nc(C(N)=O)c(=O)[nH]c1C
- T/C (dose: 6.25 mg/kg/injection, schedule: Q04DX003 (ip), vehicle: saline): 104 % of control
- T/C (dose: 12.5 mg/kg/injection, schedule: Q04DX003 (ip), vehicle: saline): 109 % of control
- T/C (dose: 25.0 mg/kg/injection, schedule: Q04DX003 (ip), vehicle: saline): 100 % of control
- T/C [20]: 88 % of control
- T/C (dose: 100.0 mg/kg/injection, schedule: Q04DX003 (ip), vehicle: saline sonified): 104 % of control
- T/C (dose: 200.0 mg/kg/injection, schedule: Q04DX003 (ip), vehicle: saline sonified): 104 % of control

SMILES: C1CCN(NC2=NCCO2)CC1
- T/C (dose: 12.5 mg/kg/injection, schedule: Q01DX009 (ip), vehicle: saline): 95 % of control
- T/C [4]: 108 % of control
- T/C [5]: 100 % of control

SMILES: CCC(=O)NC
- T/C [6]: 122 % of control
- T/C [7]: 100 % of control
- T/C [8]: 100 % of control
- T/C [9]: 104 % of control
- T/C [21]: 109 % of control
- T/C [10]: 100 % of control

SMILES: CCC1c2ccc3cc(OC)ccc3c2CC1CC(=O)O (stereo not drawn)
- T/C (dose: 100.0 mg/kg/injection, schedule: Q01DX001 (ip), vehicle: other): 100 % of control
- T/C (dose: 200.0 mg/kg/injection, schedule: Q01DX001 (ip), vehicle: other): 110 % of control
- T/C (dose: 400.0 mg/kg/injection, schedule: Q01DX001 (ip), vehicle: other): 105 % of control
